Experimental findings from patent US9164053B2, “Electronic device for monitoring single molecule dynamics” (THE REGENTS OF THE UNIVERSITY OF CALIFORNIA, priority 2011, dated 2015) are described below.

In assay [1] the target is T1, lysozyme (Enterobacteria phage T4, UniProt P00720, C54T/C97A/S90C).
T1 construct: made in house
The format is biochemical.
Experimental: The single sensitizing molecule is a cysteine variant of T4 lysozyme which contains a single substituted cysteine as the mutation S90C to provide a reactive thiol for bio-conjugation. […] A 54 μM solution of the cysteine variant of T4 lysozyme in phosphate buffer (20 mM Na2HPO4, pH 7) is prepared. Devices dilutely coated with the linker molecule pyrene maleimide non-covalently attached to the SWNT were soaked in the lysozyme solution at room temperature for 60 minutes without agitation. Devices were then soaked in wash buffer (5 mM KCl, 10 mM Na2HPO4, 0.05% polysorbate 20, pH 7) for 30 minutes with shaking to remove unattached lysozyme. Devices were finally rinsed under flowing de-ionized water for 5 minutes.

Assay [2] has as its target T2, DNA polymerase 1 (Klenow Fragment, KF) (Escherichia coli, UniProt P00582, L790C).
T2 construct: a cysteine variant of the Klenow fragment of DNA polymerase 1 (KF); made in house
In words: DNA polymerase I (Klenow fragment) single molecule device, nucleotide incorporation. It is filed as biochemical, E. Coli. Conditions: for average ΔI signal amplitude of incorporation, rank among four bases: FIG. 16C; for turnover rate / τ hi / τ lo: homopolymer DNA substrate with complementary nucleotide. On the procedure: The linker molecule is pyrene maleimide, with the pyrene functional group non-covalently attached to the SWNT sidewall. The single sensitizing molecule is a cysteine variant of the Klenow fragment of DNA polymerase 1 (KF) derived from E. Coli, which contains a single inserted cysteine at site 790 to provide a reactive thiol for bio-conjugation. The cysteine variant of KF was synthesized by methods known in the art. A 0.2 mg/mL solution of the cysteine variant of KF in activation buffer (10 mM Tris-HCl, 10 mM MgCl2, 50 mM NaCl, 1 mM DTT, pH 7.9) is prepared. Devices dilutely coated with the linker molecule pyrene maleimide non-covalently attached to the SWNT were soaked in the KF solution at room temperature for 60 minutes without agitation. Devices were then soaked in wash buffer (10 mM Tris-HCl, 10 mM MgCl2, 50 mM NaCl, 0.1 mM TCEP, 0.1% polysorbate 20, pH 7.9) for 30 minutes with shaking to remove unattached KF. Devices were finally rinsed under flowing activation buffer for 5 minutes and stored in this solution until used. These conditions lead to a density of approximately one KF molecule per micrometer of exposed SWNT.
In the preferred embodiment of Example 3, the sensitizing molecule is DNA polymerase 1 (Klenow Fragment, KF), and the chemical environment is a 100 nM solution of deoxyribonucleic acid (DNA) template and 100 μM deoxyribonucleotide triphosphate (dNTP) in buffer (50 mM NaCl, 10 mM MgCl2, 20 mM Tris, 10 mM dithiothreitol, pH 7.8). As before, high (Ihi) and low (Ilo) current values are observed during chemical activity and monitored in time. […] Transient pulses to a smaller current Ilo occur in the presence of chemical activity, which in this system requires the simultaneous presence of DNA template, dNTP to be incorporated, and Mg^2+ ions. Electrical transitions from Ihi to Ilo indicate the incorporation of one nucleotide into the template and can be statistically analyzed in the same ways as described for lysozyme.
FIGS. 15A-15D illustrate the signals produced by this embodiment when measured in buffer with different combinations of substrate and nucleotides. FIGS. 15A and 15B show the response of a KF sensitizing molecule measured with at least 10 nM polyC substrate and an excess of dGTP on 1 second and 0.1 second time scales, respectively. In the latter graph, the timing and amplitude of individual events are clearly resolved. Each event represents the addition of the nucleotide dGTP to the polyC substrate. FIGS. 15C and 15D show the same device measured with at least 10 nM polyA substrate and an excess of dTTP on identical time scales. On average, the individual events in FIG. 15D have shorter durations and higher amplitudes than the events in FIG. 15B. When either substrate or nucleotides are absent in these measurements, no transitions to Ilo are observed. Again, with reference to FIG. 15D, each event (dip in measured current) represents the addition of the nucleotide dTTP to the poly A substrate.
The device is capable of distinguishing all four types of base incorporation, and allows large numbers of individual events to be analyzed statistically. FIGS. 16A-16C illustrates typical types of analysis performed on data generated by a single KF protein in the presence of different combinations of DNA substrates and nucleotides. FIG. 16A plots the single-molecule probability distributions for the Ihi states of all four bases A, C, G, and T. Fits to each distribution are shown as solid lines and determine the mean value of τhi for each base pair. FIG. 16B plots the distributions for the four Ilo states and gives the values of τlo. The values of τhi are much longer than τlo and therefore they determine the overall turnover rate of the KF protein for a particular type of base. The data distinguish dGTP and dCTP as having shorter incorporation times and faster turnover rates than either dTTP or dATP. […]

Assay [3] in a line: single molecule sensing device, lysozyme processing peptidoglycan (current fluctuations). The format is biochemical. How it is done:
The linker molecule is pyrene maleimide, with the pyrene functional group non-covalently attached to the SWNT sidewall. The single sensitizing molecule is a cysteine variant of T4 lysozyme which contains a single substituted cysteine as the mutation S90C to provide a reactive thiol for bio-conjugation. The cysteine variant of T4 lysozyme was synthesized by methods known in the art. A 54 μM solution of the cysteine variant of T4 lysozyme in phosphate buffer (20 mM Na2HPO4, pH 7) is prepared. Devices dilutely coated with the linker molecule pyrene maleimide non-covalently attached to the SWNT were soaked in the lysozyme solution at room temperature for 60 minutes without agitation. Devices were then soaked in wash buffer (5 mM KCl, 10 mM Na2HPO4, 0.05% polysorbate 20, pH 7) for 30 minutes with shaking to remove unattached lysozyme. Devices were finally rinsed under flowing de-ionized water for 5 minutes. These conditions lead to a density of approximately one T4 lysozyme molecule per micrometer of exposed SWNT.
The fully fabricated device is used by submerging the device in a gaseous or liquid environment. Temperature of the environment should be controlled and held constant and, in the case of liquids, so should the pH and electrochemical potential. An electrical bias is created and held constant between the source and the drain electrode. The current between the source, and the drain is measured over time and collected as control data points. The device is then exposed to a different chemical environment, and the levels of the current between the source and the drain is measured over time collected as experimental data points.
In the embodiment of Example 2, the sensitizing molecule was lysozyme, and the chemical environment is 25 μg/ml peptidoglycan substrate in PBS buffer. The high (Ihi) and the low current values (Ilo) after the device is exposed to the peptidoglycan are measured over time. The parameters of the relative difference ΔI=(Ihi−Ilo)/Ilo are statistically analyzed, and have been determined to be the most reliable way to analyze the conformational changes in the sensitizing molecule. […] Ihi, on the other hand, is substantially larger and is assigned to the mechanically-closed conformation of lysozyme around a bound peptidoglycan molecule. Electrical transitions from Ilo to Ihi indicate the hinge-like closure of lysozyme as it attempts to catalytically cleave a glycosidic bond of the peptidoglycan.
In the more preferred embodiment, oscillations in the electrical current between Ilo and Ihi occur with a broad distribution of stochastic durations that mirror the enzyme's activity. Sequences of ten or more oscillations can be categorized into one of two activity types, one slow and one fast. The slow oscillation corresponds to productive enzyme activity where the enzyme is successfully cleaving bonds of the peptidoglycan. […] The amplitude of the signal ΔI is nearly the same in both slow and fast oscillations and is measured to be nearly constant, which supports a conclusion that the same range of molecular motion is being measured for both types of activity. This concurs with data from FRET which has previously proven that the range of mechanical motion in lysozyme is the same for both types of activity.
FIG. 2A illustrates an extended sequence of current fluctuation over 30 seconds, with the mean value highlighted using the setup of Example 2. […] The fast oscillations occur on average 300 times per second. The slow oscillations occur on average 15 times per second. The exact rate of either oscillation varies from one conformation to another, so that long-duration measurements observe the conversion of the enzyme to different possible rates. In different minutes of measurement, the same protein can undergo slow oscillations varying from 10 to 80 times per second.
FIG. 4 summarizes the data with mean values of τlo and τhi. Another figure of merit for each parameter is the statistical variance. […]

T2 sequence (P00582 324-928 L790C): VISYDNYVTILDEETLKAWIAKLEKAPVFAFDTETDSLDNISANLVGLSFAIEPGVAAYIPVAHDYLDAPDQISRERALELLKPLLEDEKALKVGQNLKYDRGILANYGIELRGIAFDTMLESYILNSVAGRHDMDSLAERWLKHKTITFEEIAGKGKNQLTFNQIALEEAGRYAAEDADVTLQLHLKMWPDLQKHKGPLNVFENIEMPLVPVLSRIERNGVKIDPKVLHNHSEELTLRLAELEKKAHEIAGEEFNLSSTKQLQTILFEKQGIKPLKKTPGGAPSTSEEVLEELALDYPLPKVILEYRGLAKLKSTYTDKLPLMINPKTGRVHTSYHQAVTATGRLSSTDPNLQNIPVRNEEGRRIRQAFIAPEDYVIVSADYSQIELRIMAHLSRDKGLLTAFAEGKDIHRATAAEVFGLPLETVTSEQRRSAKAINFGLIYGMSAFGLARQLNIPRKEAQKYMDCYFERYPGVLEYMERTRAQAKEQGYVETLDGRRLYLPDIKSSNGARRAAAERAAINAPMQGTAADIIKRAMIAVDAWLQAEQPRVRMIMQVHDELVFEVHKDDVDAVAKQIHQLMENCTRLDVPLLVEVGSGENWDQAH

On to `O=C(O)CCc1c[nH]c2ccccc12` [I3P, indole-3-propionic acid], for which, in assay [1] (10 mM I3P), the “pulse amplitude ΔI” value was “+20%” and the “pulse duration τhi” value is listed as less than 1 ms. For the same compound, the “interactions with inhibitor in electronic I(t) signals” value in assay [1] (weakly-interacting, non-covalent inhibitors) is listed as “clearly observed”.
As for `Nc1ncnc2c1ncn2[C@H]1C[C@H](O)[C@@H](COP(=O)(O)OP(=O)(O)OP(=O)(O)O)O1` [dATP], in assay [2], the “average ΔI signal amplitude of incorporation, rank among four bases” value is on record as “largest”; the turnover rate is 14.4 ± 2.9 s⁻¹; the τ hi is reported as 71.4 ± 14.3 ms; the τ lo turned out to be 0.33 ± 0.08 ms.
Turning to `Nc1ccn([C@H]2C[C@H](O)[C@@H](COP(=O)(O)OP(=O)(O)OP(=O)(O)O)O2)c(=O)n1` [dCTP], in assay [2], the turnover rate is 26.2 ± 4.4 s⁻¹, the τ hi turned out to be 39.0 ± 5.6 ms and the τ lo is 0.32 ± 0.07 ms.
Regarding `Nc1nc2c(ncn2[C@H]2C[C@H](O)[C@@H](COP(=O)(O)OP(=O)(O)OP(=O)(O)O)O2)c(=O)[nH]1` [dGTP], in assay [2], the “average ΔI signal amplitude of incorporation, rank among four bases” value is given as “smallest”; the turnover rate stood at 28.5 ± 3.5 s⁻¹; the τ hi stood at 38.0 ± 5.8 ms; the τ lo came to 0.33 ± 0.06 ms.
Regarding `Cc1cn([C@H]2C[C@H](O)[C@@H](COP(=O)(O)OP(=O)(O)OP(=O)(O)O)O2)c(=O)[nH]c1=O` [dTTP], in assay [2], the turnover rate amounted to 16.0 ± 2.9 s⁻¹, the τ hi is listed as 63.7 ± 11.4 ms and the τ lo is 0.42 ± 0.09 ms.
Regarding lysozyme, the normalized variance rhi in assay [3] (Nonproductive (fast), pH 5) came out at 0.48 ± 0.10; in assay [3] (Nonproductive (fast), pH 7), 0.43 ± 0.06; in assay [3] (Nonproductive (fast), pH 11) it was 0.61 ± 0.08; in assay [3] (Processing (slow), pH 5), 0.68 ± 0.15; in assay [3] (Processing (slow), pH 7) it was 0.74 ± 0.12; in assay [3] (Processing (slow), pH 11), 0.60 ± 0.15. Also, the normalized variance rlo in assay [3] (Nonproductive (fast), pH 5) is 0.97 ± 0.13; in assay [3] (Nonproductive (fast), pH 7), 0.99 ± 0.09; in assay [3] (Nonproductive (fast), pH 11), 1.00 ± 0.10; in assay [3] (Processing (slow), pH 5), 1.00 ± 0.18; in assay [3] (Processing (slow), pH 7), 1.06 ± 0.15; in assay [3] (Processing (slow), pH 11), 1.11 ± 0.23. Further, in assay [3] (catalytic processing, 25 μg/ml peptidoglycan in PBS), the “slow oscillations, average rate” value is reported as 15 times per second. For the same compound, the time spent processing in assay [3] (linear peptidoglycan substrate without crosslinks) came out at 88%; in assay [3] (peptidoglycan substrate containing crosslinks) it was 51%. Also, in assay [3] (nonproductive binding, 25 μg/ml peptidoglycan in PBS), the “fast oscillations, average rate” value came to 300 times per second.
